The source made the active and inactive calls.
Columns and labels:
Genome polyprotein = Genome polyprotein (dengue virus type 2, UniProt P29990); assay: Dengue-2 NS5 methyltransferase inhibitors, primary screen, biochemical, confirmation dose response (AID 588689); type: functional
Caspase-6 = target: T1, Caspase-6 (Homo sapiens, UniProt P55212); assay: human caspase-6 inhibitors, dose response, biochemical, VEID-R110 fluorescence, cherry-pick (AID 720632)
T1 sequence (P55212 whole entry): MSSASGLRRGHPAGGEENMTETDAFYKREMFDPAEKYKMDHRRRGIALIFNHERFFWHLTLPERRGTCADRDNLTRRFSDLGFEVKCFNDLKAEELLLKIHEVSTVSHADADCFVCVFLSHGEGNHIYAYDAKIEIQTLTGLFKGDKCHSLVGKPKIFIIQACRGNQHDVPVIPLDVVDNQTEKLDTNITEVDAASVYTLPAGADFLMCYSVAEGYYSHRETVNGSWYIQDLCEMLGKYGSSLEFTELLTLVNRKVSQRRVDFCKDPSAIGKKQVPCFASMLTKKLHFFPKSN

[1] = target: T2, Histone-lysine N-methyltransferase NSD2 (Homo sapiens, UniProt O96028); type: biochemical
T2 sequence (O96028 whole entry): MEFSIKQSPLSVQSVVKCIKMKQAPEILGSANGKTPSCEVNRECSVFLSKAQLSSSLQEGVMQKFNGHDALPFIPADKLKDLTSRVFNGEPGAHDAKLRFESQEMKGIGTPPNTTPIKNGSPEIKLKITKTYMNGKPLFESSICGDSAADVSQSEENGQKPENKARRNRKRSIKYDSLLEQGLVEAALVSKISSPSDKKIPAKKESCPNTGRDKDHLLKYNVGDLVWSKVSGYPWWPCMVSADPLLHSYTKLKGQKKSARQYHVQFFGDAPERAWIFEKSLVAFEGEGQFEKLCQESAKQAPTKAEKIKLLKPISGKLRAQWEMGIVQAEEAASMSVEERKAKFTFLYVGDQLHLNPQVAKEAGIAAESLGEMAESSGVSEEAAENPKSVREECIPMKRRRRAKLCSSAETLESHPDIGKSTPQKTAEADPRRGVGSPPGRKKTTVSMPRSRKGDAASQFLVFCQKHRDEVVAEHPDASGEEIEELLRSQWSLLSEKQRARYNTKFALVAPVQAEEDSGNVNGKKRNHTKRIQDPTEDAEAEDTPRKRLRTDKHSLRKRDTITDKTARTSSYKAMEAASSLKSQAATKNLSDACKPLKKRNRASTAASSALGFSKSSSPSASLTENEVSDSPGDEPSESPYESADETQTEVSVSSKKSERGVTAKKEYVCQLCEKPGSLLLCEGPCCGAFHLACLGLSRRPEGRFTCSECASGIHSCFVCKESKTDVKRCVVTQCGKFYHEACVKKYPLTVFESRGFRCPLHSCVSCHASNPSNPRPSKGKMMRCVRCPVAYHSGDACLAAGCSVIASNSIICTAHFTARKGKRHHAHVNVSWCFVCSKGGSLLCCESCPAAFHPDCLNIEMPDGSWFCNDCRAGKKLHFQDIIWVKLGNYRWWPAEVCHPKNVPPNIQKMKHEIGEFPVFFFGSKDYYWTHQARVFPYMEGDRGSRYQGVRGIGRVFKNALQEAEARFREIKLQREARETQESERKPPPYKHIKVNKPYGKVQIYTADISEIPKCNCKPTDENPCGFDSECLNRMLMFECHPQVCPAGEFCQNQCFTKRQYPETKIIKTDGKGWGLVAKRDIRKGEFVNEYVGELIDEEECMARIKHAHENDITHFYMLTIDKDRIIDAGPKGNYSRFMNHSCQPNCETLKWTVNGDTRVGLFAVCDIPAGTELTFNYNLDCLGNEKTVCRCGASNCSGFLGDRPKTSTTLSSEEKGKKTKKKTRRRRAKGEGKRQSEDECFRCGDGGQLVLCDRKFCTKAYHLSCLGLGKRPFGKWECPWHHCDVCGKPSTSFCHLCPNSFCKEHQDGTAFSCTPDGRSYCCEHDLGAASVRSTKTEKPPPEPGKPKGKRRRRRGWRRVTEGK

Caspase-8 = Caspase-8 (Homo sapiens, UniProt Q14790); assay: caspase-8 inhibition counter-screen, dose response, selectivity assay for caspase-6 inhibitor project, biochemical, Z-IETD-R110 fluorescence, cherry-picked samples (AID 743294)
[2] = target: T3, Delta-type opioid receptor (Homo sapiens, UniProt P41143); assay: HTS Image-Based Screen for Antagonists of the DOR Receptor. [Related pubchem assays (depositor defined):AID1777, AID1785, AID1786, AID2133]; type: functional
[3] = target: T3, Delta-type opioid receptor; assay: HTS Image-Based Screen for Agonists of the DOR Receptor. [Related pubchem assays (depositor defined):AID1777, AID1786, AID2133]; type: functional
[4] = inhibitors of intracellular T. cruzi replication, confirmation, NIH3T3 host cells, beta-gal luminescence (AID 2044); type: functional, cell-based;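 further: intracellular parasites grown in NIH/3T3 mouse fibroblasts as host cells; luminescent beta-galactosidase reporter signal from transgenic T. cruzi replicating inside host cells; inhibitors lower the luminescence signal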
[5] = target: T4, Heat shock factor protein 1 (Mus musculus, UniProt P38532); assay: HSF1 potentiators in luciferase reporter cells, confirmation, cell-based, NIH3T3, luminescence, dose retest (AID 435004); type: functional;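 further: stress induced by proteasome inhibitor MG132 added 30 min after compound; luciferase reporter driven by HSF1 response element in NIH3T3 cells; actives raise luminescence as potentiators of the MG132 stress response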
T4 sequence (P38532 whole entry): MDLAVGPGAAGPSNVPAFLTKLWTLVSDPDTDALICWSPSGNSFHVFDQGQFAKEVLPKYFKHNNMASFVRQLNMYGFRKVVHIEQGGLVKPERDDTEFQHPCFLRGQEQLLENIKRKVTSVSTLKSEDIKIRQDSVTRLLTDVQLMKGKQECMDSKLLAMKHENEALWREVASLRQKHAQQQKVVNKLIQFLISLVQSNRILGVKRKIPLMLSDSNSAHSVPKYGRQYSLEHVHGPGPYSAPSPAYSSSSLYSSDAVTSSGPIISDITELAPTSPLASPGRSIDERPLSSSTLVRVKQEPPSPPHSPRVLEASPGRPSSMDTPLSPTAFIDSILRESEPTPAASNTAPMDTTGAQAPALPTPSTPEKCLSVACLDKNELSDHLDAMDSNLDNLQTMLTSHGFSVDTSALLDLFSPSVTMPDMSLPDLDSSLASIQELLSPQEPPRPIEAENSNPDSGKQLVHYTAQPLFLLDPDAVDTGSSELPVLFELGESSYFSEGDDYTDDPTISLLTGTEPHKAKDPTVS

CHO = assay: cytotoxicity in TLR9-MyD88 CHO cells, dose response, cytotoxicity control for TLR9-MyD88 binding inhibitor project, cell-based, luminescence (AID 588339); type: functional, hamster; settings: Cricetulus griseus;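 further: CHO cells stably coexpressing TLR9 and MyD88 fusions from primary screen; compound exposure lasted 48 hours before viability readout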

T3 sequence (P41143 whole entry): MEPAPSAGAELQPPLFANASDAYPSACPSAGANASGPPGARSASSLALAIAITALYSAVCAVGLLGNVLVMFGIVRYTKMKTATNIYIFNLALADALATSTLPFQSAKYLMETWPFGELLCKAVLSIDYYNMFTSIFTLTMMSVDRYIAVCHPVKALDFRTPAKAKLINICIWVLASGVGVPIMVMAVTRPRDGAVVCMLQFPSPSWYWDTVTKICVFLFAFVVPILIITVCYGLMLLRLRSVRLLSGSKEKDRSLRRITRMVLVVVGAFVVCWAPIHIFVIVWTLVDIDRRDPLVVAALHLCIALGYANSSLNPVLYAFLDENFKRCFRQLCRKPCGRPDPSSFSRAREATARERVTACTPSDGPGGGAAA
Chain of Genome polyprotein (P29990 2492-3391 limits assumed): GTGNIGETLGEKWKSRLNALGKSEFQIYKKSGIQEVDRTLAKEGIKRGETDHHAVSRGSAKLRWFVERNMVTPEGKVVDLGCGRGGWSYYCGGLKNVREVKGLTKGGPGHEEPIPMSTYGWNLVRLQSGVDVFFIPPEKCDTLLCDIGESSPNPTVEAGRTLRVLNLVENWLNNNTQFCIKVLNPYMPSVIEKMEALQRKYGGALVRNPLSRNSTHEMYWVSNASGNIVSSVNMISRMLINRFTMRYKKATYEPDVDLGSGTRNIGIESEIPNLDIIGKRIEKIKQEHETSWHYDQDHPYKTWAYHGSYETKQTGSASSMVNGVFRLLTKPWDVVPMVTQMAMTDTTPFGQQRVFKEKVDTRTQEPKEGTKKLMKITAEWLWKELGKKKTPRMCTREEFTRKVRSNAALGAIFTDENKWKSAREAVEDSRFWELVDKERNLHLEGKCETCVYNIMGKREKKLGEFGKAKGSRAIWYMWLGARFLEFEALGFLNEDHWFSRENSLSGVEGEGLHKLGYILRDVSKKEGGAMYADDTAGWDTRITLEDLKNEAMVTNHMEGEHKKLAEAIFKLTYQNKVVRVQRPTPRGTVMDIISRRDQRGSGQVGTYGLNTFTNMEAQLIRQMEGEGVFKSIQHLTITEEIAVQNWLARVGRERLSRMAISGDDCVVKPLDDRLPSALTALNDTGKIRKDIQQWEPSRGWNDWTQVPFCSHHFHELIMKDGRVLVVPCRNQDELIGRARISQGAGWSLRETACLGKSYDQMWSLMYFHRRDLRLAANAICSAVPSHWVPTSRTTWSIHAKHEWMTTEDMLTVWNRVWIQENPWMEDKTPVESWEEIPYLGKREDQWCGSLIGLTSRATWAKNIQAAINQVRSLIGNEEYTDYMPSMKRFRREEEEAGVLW
Chain of Caspase-8 (Q14790 217-374 limits assumed): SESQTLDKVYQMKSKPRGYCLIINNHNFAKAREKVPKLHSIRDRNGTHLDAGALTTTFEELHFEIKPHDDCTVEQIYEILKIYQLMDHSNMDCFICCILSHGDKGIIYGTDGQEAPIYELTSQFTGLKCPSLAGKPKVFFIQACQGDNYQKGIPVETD
Chain of Caspase-8 (Q14790 385-479 limits assumed): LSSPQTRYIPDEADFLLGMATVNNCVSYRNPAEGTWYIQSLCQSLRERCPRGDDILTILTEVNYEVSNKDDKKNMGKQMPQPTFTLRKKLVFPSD

Structure (SMILES)	IC50 (Genome polyprotein)	AC50 (Caspase-6)	AC50 [1]	AC50 (Caspase-8)	IC50 [2]	EC50 [3]	EC50 [4]	EC50 [5]	IC50 (CHO)
O=S(=O)(O)c1cc(O)c2cc(Nc3ccccc3)ccc2c1	19.4 µM (active)	0.403 µM (active)	1.8 µM (active)	> 70 µM (inactive)					
O=[N+]([O-])c1c(Nc2ccccc2O)cc(Cl)c2nonc12	9.7 µM (active)				14.7 µM (inactive)	> 32 µM (inactive)	1.79 µM (active)	3.49 µM (inconclusive)	1.36 µM (active)

From ChEMBL document CHEMBL1201862, “PubChem BioAssay data set” (2004)
